Numbered stars: 1 amine (or outer) side, 2 acyl side, 3 side chain; on linkers, the order of the positions; unused ones are H or OH. Bridge positions count the residues as written; N and C are the ends. Square brackets hold non-standard residues; d marks the D form. Peptide text beside a SMILES is read from it. Trp(βS-Me,7-OMe) = COc1cccc2c([C@H](C)[C@H](N)C(=O)O)c[nH]c12; X69 = O=C(O)C12CC(C[C@H](N[*:1])C(=O)[*:2])(C1)C2; Trp(7-CN) = N#Cc1cccc2c(C[C@H](N)C(=O)O)c[nH]c12; Trp(7-Cl) = N[C@@H](Cc1c[nH]c2c(Cl)cccc12)C(=O)O; Phe(4-CONH2) = NC(=O)c1ccc(C[C@H](N)C(=O)O)cc1; Phe(4-COOH) = N[C@@H](Cc1ccc(C(=O)O)cc1)C(=O)O; 4Pal(3S-Me) = C[C@@H](c1ccncc1)[C@H](N)C(=O)O; Trp(7-aza) = N[C@@H](Cc1c[nH]c2ncccc12)C(=O)O; Pip(5R-OH) = O=C(O)[C@@H]1CC[C@@H](O)CN1; X1 = O=C([C@@H]1CC[C@H](N[*:1])C1)[*:2]; Pip(4-aza) = O=C(O)[C@@H]1CNCCN1; 4Pal = N[C@@H](Cc1ccncc1)C(=O)O; dHyp = O=C(O)[C@H]1C[C@H](O)CN1; X61 = O=C(CN(CCCO)[*:1])[*:2]; Ahp(2) = CCCCC[C@H](N)C(=O)O; Pip = O=C(O)[C@@H]1CCCCN1; αMeS = C[C@](N)(CO)C(=O)O; Nle = CCCC[C@H](N)C(=O)O; dNMeA = CN[C@H](C)C(=O)O; Sar = CNCC(=O)O
molecular target: T1, human soluble TNFR1 (sTNFR1) (Homo sapiens, UniProt P19438); assay: Human sTNFR1-peptide displacement assay (LanthaScreen Eu TR-FRET binding assay)
T1 construct: made in house; host or cells: Sf21 (baculovirus)
T1 sequence (P19438 with tags, fused parts or gaps): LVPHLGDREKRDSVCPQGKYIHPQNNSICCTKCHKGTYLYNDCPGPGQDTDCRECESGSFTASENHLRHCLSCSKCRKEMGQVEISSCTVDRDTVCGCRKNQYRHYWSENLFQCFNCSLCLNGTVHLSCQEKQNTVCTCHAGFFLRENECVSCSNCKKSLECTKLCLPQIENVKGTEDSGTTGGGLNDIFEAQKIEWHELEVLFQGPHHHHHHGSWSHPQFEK
Protocol: A. Procedure for Human sTNFR1-Peptide Displacement Assay
The affinity was determined using LanthaScreen Eu-based time-resolved fluorescence resonance energy transfer (TR-FRET)-based binding assay.
A TR-FRET assay measuring the displacement of biotinylated peptide SEQ ID NO. 1 from human soluble TNFR1 (sTNFR1) in a pre-formed complex by a macrocyclic peptide yields the affinity (Kd^app) of the cyclic peptide for sTNFR1. The reagents for the assay include: the C′-terminally 6His-tagged sTNFR1 (residues 1-211) protein purified from a Sf21 baculovirus expression system, the biotin-tagged B0372 peptide described in section “Preparation of Final Compounds”, part E, the LanthaScreen™ anti-His Tag Europium donor (Life Technologies Corporation (San Diego, CA), cat. #PV5597), and a streptavidin-conjugate Alexa Fluor™ 647 acceptor (Invitrogen (Waltham, MA), cat. #S32357). Time-resolved TR-FRET is achieved when sTNFR1 is bound to biotinylated peptide SEQ ID NO. 1 through coupling of the donor and acceptor FRET pair.
100 nM biotinylated peptide SEQ ID NO. […] 100 nM biotinylated peptide SEQ ID NO. 1 was chosen as it reflects the ˜Kd for this complex. After 30 min at ambient temperature, each test peptide (2 mM stock in DMSO) is titrated in a 20 point, ˜3-fold discrete dose-response using an acoustic-dispense liquid handler. Specifically, 80 nL of peptide/DMSO is transferred into a ProxiPlate-384 Plus 384-well assay plate (PerkinElmer, cat. #6008289). To this plate, 8 μL of the previously formed sTNFR 1-biotinylated peptide SEQ ID NO. 1 complex is added and allowed to reach binding equilibrium with the test peptide at ambient temperature for 90 min.
The TR-FRET signal is measured with the following EnVision® settings: excitation laser at 337 nm; emission1=615 nm, emission2=665 nm, LANCE/DELFIA dichroic mirror, delay time=[…]. The signal of each well is determined as the ratio of the emission at 665 nm to that at 615 nm. Percent displacement is determined by normalization to control wells containing DMSO (0%) or a saturating concentration of a displaceable peptide (100%). The %-effect as a function of peptide concentration is fit to a five-parameter logistic fit based on the Morrison equation to account for tight binding kinetics.

Row | SMILES | IC50 [nM] | Kd [nM]
1 | CCCC[C@@H]1NC(=O)CSC[C@@H](C(N)=O)NC(=O)[C@H]([C@@H](C)c2c[nH]c3c(OC)cccc23)NC(=O)CN(C)C(=O)[C@H](Cc2ccc(O)cc2)NC(=O)[C@H](Cc2ccc(C(=O)O)cc2)NC(=O)[C@](C)(CO)NC(=O)[C@H](Cc2c[nH]c3c(Cl)cccc23)NC(=O)[C@H](Cc2ccncc2)NC(=O)[C@H](CC(N)=O)NC(=O)CN(CCCO)C(=O)[C@H](Cc2c[nH]c3ncccc23)NC(=O)[C@@H]2CCCCN2C(=O)[C@H](Cc2ccncc2)NC1=O [SEQ ID NO. 170] ({CH2CO}-[Nle][4Pal][Pip][Trp(7-aza)][X61]N[4Pal][Trp(7-Cl)][αMeS][Phe(4-COOH)]Y[Sar][Trp(βS-Me,7-OMe)]C-NH2; thioether N-14) | 0.6 | 0.56
2 | CCCC[C@@H]1NC(=O)CSC[C@@H](C(N)=O)NC(=O)[C@H]([C@@H](C)c2c[nH]c3c(OC)cccc23)NC(=O)[C@@H](C)N(C)C(=O)[C@H](Cc2ccc(O)cc2)NC(=O)[C@H](Cc2ccc(C(=O)O)cc2)NC(=O)[C@](C)(CO)NC(=O)[C@H](Cc2c[nH]c3c(Cl)cccc23)NC(=O)[C@H](Cc2ccncc2)NC(=O)[C@H](CC(N)=O)NC(=O)[C@H]2CCCN2C(=O)[C@H](Cc2c[nH]c3ccccc23)NC(=O)[C@@H]2CNCCN2C(=O)[C@H](Cc2ccncc2)NC1=O [SEQ ID NO. 276] ({CH2CO}-[Nle][4Pal][Pip(4-aza)]W[dP]N[4Pal][Trp(7-Cl)][αMeS][Phe(4-COOH)]Y[dNMeA][Trp(βS-Me,7-OMe)]C-NH2; thioether N-14) | 2.41 | –
3 | CCCCC[C@@H]1NC(=O)[C@@H]2CC[C@@H](C2)NC(=O)[C@H]([C@@H](C)c2c[nH]c3c(OC)cccc23)NC(=O)CN(C)C(=O)[C@H](Cc2ccc(C(N)=O)cc2)NC(=O)[C@H](Cc2ccc(C(N)=O)cc2)NC(=O)[C@](C)(CO)NC(=O)[C@H](Cc2c[nH]c3c(C#N)cccc23)NC(=O)[C@H](Cc2ccc(C(=O)O)cc2)NC(=O)[C@H](CC(N)=O)NC(=O)[C@H]2C[C@H](O)CN2C(=O)[C@H](Cc2c[nH]c3ccccc23)NC(=O)[C@H]([C@@H](C)O)NC(=O)[C@H]([C@@H](C)c2ccncc2)NC1=O [SEQ ID NO. 234] (cyclo([Ahp(2)][4Pal(3S-Me)]TW[dHyp]N[Phe(4-COOH)][Trp(7-CN)][αMeS][Phe(4-CONH2)][Phe(4-CONH2)][Sar][Trp(βS-Me,7-OMe)][X1])) | – | 0.24
4 | CCCC[C@@H]1NC(=O)[C@@H]2CC[C@@H](C2)NC(=O)[C@H]([C@@H](C)c2c[nH]c3c(OC)cccc23)NC(=O)CN(C)C(=O)[C@H](Cc2ccc(C(N)=O)cc2)NC(=O)[C@H](Cc2ccc(C(N)=O)cc2)NC(=O)[C@](C)(CO)NC(=O)[C@H](Cc2c[nH]c3c(C#N)cccc23)NC(=O)[C@H](CC23CC(C(=O)O)(C2)C3)NC(=O)[C@H](CC(N)=O)NC(=O)[C@H]2C[C@H](O)CN2C(=O)[C@H](Cc2c[nH]c3ncccc23)NC(=O)[C@@H]2CC[C@@H](O)CN2C(=O)[C@H](Cc2ccncc2)NC1=O [SEQ ID NO. 26] (cyclo([4Pal][Pip(5R-OH)][Trp(7-aza)][dHyp]N[X69][Trp(7-CN)][αMeS][Phe(4-CONH2)][Phe(4-CONH2)][Sar][Trp(βS-Me,7-OMe)][X1][Nle])) | – | 0.24

From US20240287138A1, “CYCLIC PEPTIDES FOR INHIBITING TNF RECEPTOR 1 ACTIVITY” (Merck Sharp & Dohme LLC, priority 2023, published 2024)
